From patent EP0694547B1, “2-(2-amino-1,6-dihydro-6-oxo-purin-9-yl)methoxy-1,3-propanediol derivatives” (F. Hoffmann-La Roche AG, priority 1994, dated 1996)
One block for each compound: values may come before it.

Experiments:
[1] = Determination of oral absorption (bioavailability) in the rat
Experimental: The following assay was used to determine the oral absorption (oral bioavailability) of the compound of Formula I (L-monovaline ester of ganciclovir) and of other ganciclovir amino acid esters, other ganciclovir esters and ethers examined for comparative purposes.
To measure the oral bioavailability of a compound first the plasma level of the compound in male rats was determined after a single oral (po) dose of the compound. […] For ganciclovir the single dose in each case, po and iv, is 10 mg/kg; for a prodrug ester (including the L-monovaline ester of ganciclovir) the single dose in each case, oral and iv, is a dose equimolar to 10 mg/kg of ganciclovir. From the two measurements following po and iv administration, the oral bioavailability of a compound was calculated by dividing the total area under the concentration vs. time curve following p.o. administration by the total area under the concentration vs. time curve following iv administration, appropriately corrected for dose, according to the equation: F(p.o.) (%) = [AUC(p.o.) /AUC(i.v.) ] x [Dose(i.v.) / Dose(p.o.) ] x 100 [formula]
The dose vehicle for oral and intravenous dosing consisted normal saline containing 2 % acetic acid. In both cases the compound concentration was equivalent to 4.0 mg/ml ganciclovir with a dose rate equivalent to 10 mg/kg (2.5 ml/kg) of ganciclovir. A 200 gm rat received 0.5 ml of the oral drug solution by gavage or via injection into the tail vein.
The rats were acclimatized to the laboratory environment for three days and fasted overnight before start of the experiment and until 4 hours after dosing. Blood was collected from 4 rats at each of the following times: 0 min (pre-dose), 5 min (iv only), 15 min, 30 min, 1 hr, 2 hr, 3 hr, 5 hr, 7 hr, 10 hr and 24 hr. The blood was immediately centrifuged to obtain the plasma and the plasma frozen at -20 °C until analysis.
Aliquots of plasma (0.50 ml) were mixed with 0.020 ml of internal standard (acyclovir, 15 µg/ml in 10 % methanol/water) and 3.0 ml of acetonitrile. The mixture was vortexed and the resulting precipitate was removed by centrifugation (4,000 g, 10 min). The supernatant was evaporated to dryness under nitrogen and reconstituted in 200 µl of HPLC mobile phase. Aliquots (0.05 ml) were analyzed by HPLC using a Keystone Hypersil BDS, 250 x 4.6 mm C 18 column. The mobile phase contained 2 % acetonitrile in 30 mM sodium phosphate buffer containing 5 mM heptane sulfonic acid, pH 2.0 and was pumped at 1.0 ml/min. Ganciclovir and internal standard were detected and measured by UV absorbance at 254 nm.

[2] = relative to acyclovir; cited from earlier work
[3] = format: physicochemical; details: pH 7
Experimental: Alternatively, the compound of the invention may be prepared using optically active reactants. When pure diastereomers of mono-L-valine ganciclovir are prepared the condensation step (d) is the preferred method of synthesis. However, if optically active reagents are being used it would be important to avoid the pH range above 6, as at the higher pH range interconversion of the free compound of Formula I occurs.

[4] = Determination of oral absorption (bioavailability) in the Cynomolgus monkey; format: in vivo, Male cynomolgus monkeys; details: oral gavage dose equimolar to 10 mg/kg ganciclovir, plasma ganciclovir
Experimental: Male cynomolgus monkeys weighing 5 to 7 kilos were used. The animals were fed monkey chow, fruit and water and maintained on a 12 hour light cycle. The tested compounds were formulated at a concentration equimolar to a 10 mg/ml solution of ganciclovir in saline. The oral formulation was administered by gavage at a rate of 1.0 ml/kg for a final dose equimolar to a 10 mg/kg dose of ganciclovir. The iv formulation of ganciclovir was formulated in saline containing 0.2% HCl at a concentration of 20 mg/ml and administered at a rate of 0.5 ml/kg.
The animals were fasted beginning the evening prior to dosing and until 4 hr after dosing. […] The blood samples were collected in heparinized syringes and the plasma was immediately isolated by centrifugation and frozen at -20 °C until analysis.
The bioavailability (F) is calculated according to the equation given in Example 9.

[5] = in vivo, po; cited from earlier work

Compound: CC(C)[C@H](N)C(=O)OCC(CO)OCn1cnc2c(=O)[nH]c(N)nc21.Cl (stereo partly drawn) [G-L-valinate hydrochloride, 2-(2-Amino-1,6-dihydro-6-oxo-purin-9-yl)methoxy-3-hydroxy-1-propanyl-L-valinate hydrochloride]
ORAL BIOAVAILABILITY (F %) ([1]; rat, in vivo, 1440 min): 98.1%

Compound: NCC(=O)OCCOCn1cnc2c(=O)[nH]c(N)nc21 [glycyl ester of acyclovir]
solubility greater than the solubility of acyclovir itself [2]: about 30 fold

Compound: CC(C)[C@H](N)C(=O)OCC(CO)OCn1cnc2c(=O)nc(N)[nH]c21 (stereo partly drawn) [Formula I, 2-(2-amino-1,6-dihydro-6-oxo-purin-9-yl)methoxy-3-hydroxy-1-propanyl-L-valinate]
half-life [3]: less than one

Compound: CCC(=O)OCC(COC(=O)CC)OCn1cnc2c(=O)[nH]c(N)nc21 [G-bis(propionic acid) ester]
ORAL BIOAVAILABILITY (F %) ([1]; rat, in vivo, 1440 min): 17.7% | more bioavailable than ganciclovir itself [5]: about 42%

Next, values leading:

bioavailability at 24 h ([1]; rat, plasma, po, 10 mg/kg): 7.9% | bioavailability [4]: 9.9%
Compound: Nc1nc(O)c2ncn(COC(CO)CO)c2n1 [Ganciclovir, 2-(2-Amino-1,6-dihydro-6-oxo-purin-9-yl)-methoxy-1,3-propanediol]

ORAL BIOAVAILABILITY (F %) ([1]; male rats, single po and iv dose equimolar to 10 mg/kg ganciclovir, plasma ganciclovir AUC 0-24 hr): non-detectable
Compound: Nc1nc2c(ncn2COC(COCc2ccccc2)COCc2ccccc2)c(=O)[nH]1 [G-dibenzyl ether]
